How the values were obtained:
[1] = system: patients with relapsing form of clinically definite MS who relapsed while taking Rebif®; test: Example 2: oral Cladribine added to Rebif in MS patients with a relapse while taking Rebif (MRI brain lesions, safety); type: in vivo, human
[2] = system: patients with remitting-relapsing multiple sclerosis; conditions: oral, 6 monthly courses of 5 days, total dose about 4-5.7 mg/kg; compared with i.v. infusion study (Sipe et al., 1994); cited from earlier work
[3] = system: patients with relapsing forms of clinically definite multiple sclerosis; test: Example 1: oral Cladribine in patients with relapsing forms of MS (MRI brain lesions, safety); type: in vivo, human; conditions: for brain lesions (MRI): then maintenance
From the text: Each patient is first examined for normal hepatic, renal, and bone marrow functioning to establish baseline values. Patients are selected from Male or Female, between 18 and 55 years of age who had one or more relapses within the prior 12 months. Female patients are non-pregnant female. […] Patients are monitored to determine whether there is any progression or improvement of brain lesions associated with progression of MS through MRI scans and neurological examination as described in Miller et al., 1996, above; Evans et al., 1997, above; Sipe et al., 1984, above; and Mattson, 2002, above. All patients have a baseline and MRI study (brain or spinal cord, according to localization of the lesions) at month 12. The patient's disability progression and the time for having a first relapse are monitored as well as the proportion of relapse-free patients at 24 months. Lymphocyte markers and monocyte counts are monitored in the patients.

[4] = system: patients with Chronic Progressive MS and Relapsing-Remitting MS; conditions: cited from earlier work
[5] = system: patients with primary progressive (PP) or secondary progressive (SP) multiple sclerosis; conditions: Phase III; 0.07 mg/kg/day s.c., repeated for 2 or 6 months; cited from earlier work
[6] = oral 2-CdA induction and maintenance treatments combined with Rebif 44 mcg s.c. TIW, 96 weeks
[7] = oral 2-CdA cyclodextrin tablets, induction treatment followed by maintenance treatments

Question: What does the source list for `Nc1nc(Cl)nc2c1ncn2[C@H]1C[C@H](O)[C@@H](CO)O1` [Cladribine, 2-chloro-2′deoxyadenosine]?
Answer: brain lesions (MRI) ([1]; Group 2: low dose cladribine (1.75 mg/kg induction + 1.75 mg/kg maintenance) added to Rebif 44 mcg s.c. TIW): decrease in brain lesions; brain lesions (MRI) ([1]; Group 3: high dose cladribine (3.5 mg/kg induction + 1.75 mg/kg maintenance) added to Rebif 44 mcg s.c. TIW): decrease in brain lesions; adverse effects [1, 6]: no severe adverse effect is observed; effect of the regimen on brain lesions [1, 6]: efficient in decreasing brain lesions; side effects [2]: less severe; brain lesions (MRI) ([3]; Group 2: oral 2-CdA total dose 1.75 mg/kg over 2 months induction): decrease in brain lesions; brain lesions (MRI) ([3]; Group 3: oral 2-CdA total dose 3.5 mg/kg over 4 months induction): decrease in brain lesions; adverse effects [3, 7]: no severe adverse effect is observed; effect of the regimen on brain lesions [3, 7]: efficient in decreasing brain lesions; EDSS, SNRS scores and MRI findings ([4]; Phase II, 0.1 mg/kg/day 7 days i.v. x 4 months or 0.07 mg/kg/day 5 days s.c. x 6 months): positive effects; adverse effects (AEs) ([4]; observed with the highest doses (Selby et al., 1998; Beutler et al., 1994)): increased incidence of infections related to compromised immune function or myelosuppression; MRI-measured brain lesions [5]: significant reduction of MRI-measured brain lesions

From patent US12377056B2, “Cladribine regimen for treating multiple sclerosis” (priority 2006, dated 2025)
